Reference: ChEMBL document CHEMBL1201862, “PubChem BioAssay data set” (2004)
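Following 48 hours of exposure in 96-well plates, responses at five concentrations were used to interpolate endpoints linearly. GI50 = concentration required for 50% inhibition of growth.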 Calls of active or inactive are those of the source. Cut-off read from the data, not from the text of the source: active = GI50 up to about 1.1 µM and inactive = higher.

What was measured:
Test in all cases: growth of human tumour cells (NCI), 48 h
[1] = system: NCI-H460
[2] = system: IGROV-1
[3] = system: SF-295
[4] = system: NCI-H226
[5] = system: OVCAR-4
[6] = system: NCI/ADR-RES
[7] = system: EKVX
[8] = system: SF-539
[9] = system: MCF7
[10] = system: A549
[11] = system: SK-MEL-5
[12] = system: HCC 2998
[13] = system: M14
[14] = system: UACC-62
[15] = system: SN12C
[16] = system: TK-10
[17] = system: RXF 393
[18] = system: SR
[19] = system: HL-60
[20] = system: SK-MEL-28

## Nc1ccccc1C(=O)N/N=C1\C(=O)Nc2ccccc21
[1]
  GI50: > 100 µM (inactive)
[2]
  GI50: 64 µM (inactive)
[3]
  GI50: > 100 µM (inactive)
[4]
  GI50: > 100 µM (inactive)
[5]
  GI50: > 100 µM (inactive)
[6]
  GI50: > 100 µM (inactive)
[7]
  GI50: > 100 µM (inactive)
[8]
  GI50: > 100 µM (inactive)
[9]
  GI50: > 100 µM (inactive)
[10]
  GI50: > 100 µM (inactive)
[11]
  GI50: > 100 µM (inactive)
[12]
  GI50: > 100 µM (inactive)
[13]
  GI50: > 100 µM (inactive)
[14]
  GI50: > 100 µM (inactive)
[15]
  GI50: > 100 µM (inactive)
[16]
  GI50: 32.5 µM (inactive)
[17]
  GI50: 68.7 µM (inactive)
[18]
  GI50: > 100 µM (inactive)

## COC(=O)C(F)C(Br)C(=O)OC (stereo not drawn)
[1]
  GI50: 18.9 µM (inactive)
[2]
  GI50: 2.69 µM (inactive)
[3]
  GI50: 26.4 µM (inactive)
[4]
  GI50: 20.9 µM (inactive)
[5]
  GI50: 3.39 µM (inactive)
[6]
  GI50: 2.94 µM (inactive)
[7]
  GI50: 2.19 µM (inactive)
[8]
  GI50: 5.48 µM (inactive)
[9]
  GI50: 3.42 µM (inactive)
[10]
  GI50: 19.7 µM (inactive)
[19]
  GI50: 1.95 µM (inactive)
[11]
  GI50: 18.5 µM (inactive)
[12]
  GI50: 8 µM (inactive)
[13]
  GI50: 5.79 µM (inactive)
[14]
  GI50: 15.9 µM (inactive)
[15]
  GI50: 16.9 µM (inactive)
[16]
  GI50: 2.38 µM (inactive)
[17]
  GI50: 2.18 µM (inactive)
[18]
  GI50: 1.37 µM (inactive)
[20]
  GI50: 18 µM (inactive)

## COc1cc2cc(C(=O)N3CC(CCl)c4ccc(NO)cc43)[nH]c2c(OC)c1OC (stereo not drawn)
[1]
  GI50: 0.0446 µM (active)
[2]
  GI50: 0.0968 µM (active)
[3]
  GI50: 0.0836 µM (active)
[4]
  GI50: 0.244 µM (active)
[5]
  GI50: 0.177 µM (active)
[6]
  GI50: 0.0723 µM (active)
[7]
  GI50: 0.35 µM (active)
[8]
  GI50: 0.353 µM (active)
[9]
  GI50: 0.0391 µM (active)
[10]
  GI50: 0.0897 µM (active)
[19]
  GI50: 0.126 µM (active)
[11]
  GI50: 0.0984 µM (active)
[12]
  GI50: 0.0977 µM (active)
[13]
  GI50: 0.188 µM (active)
[14]
  GI50: 0.0991 µM (active)
[15]
  GI50: 0.286 µM (active)
[16]
  GI50: 0.313 µM (active)
[17]
  GI50: 0.114 µM (active)
[18]
  GI50: 0.0577 µM (active)
[20]
  GI50: 0.245 µM (active)

## O=C1CSC(/C=C/c2ccccc2)N1c1nc2cc3sc(N4C(=O)CSC4/C=C/c4ccccc4)nc3cc2s1 (stereo not drawn)
[1]
  GI50: 3.33 µM (inactive)
[2]
  GI50: > 62.1 µM (inactive)
[3]
  GI50: > 100 µM (inactive)
[4]
  GI50: 17.1 µM (inactive)
[5]
  GI50: 65.3 µM (inactive)
[6]
  GI50: > 87.1 µM (inactive)
[7]
  GI50: 13.2 µM (inactive)
[8]
  GI50: 2.83 µM (inactive)
[9]
  GI50: 13.5 µM (inactive)
[10]
  GI50: 9.82 µM (inactive)
[19]
  GI50: 68.1 µM (inactive)
[11]
  GI50: > 46.5 µM (inactive)
[12]
  GI50: 43.8 µM (inactive)
[13]
  GI50: > 100 µM (inactive)
[14]
  GI50: > 100 µM (inactive)
[15]
  GI50: 18.3 µM (inactive)
[16]
  GI50: 37.2 µM (inactive)
[17]
  GI50: > 100 µM (inactive)
[18]
  GI50: 14.6 µM (inactive)
[20]
  GI50: > 58.7 µM (inactive)
